Measurements from ChEMBL document CHEMBL1135241 (Bioorg Med Chem Lett, 2002).

Experiments:
[1] = target: Delta-type opioid receptor (Mus musculus, UniProt P32300); assay: In vitro biological activity by electrically induced smooth muscle contractions in mouse vas deferens (Opioid receptor delta 1); inhibitory concentration was evaluated; assay type: functional
Mu-type opioid receptor [2] = target: Mu-type opioid receptor (Rattus norvegicus, UniProt P33535); assay: Binding affinity against Opioid receptor mu 1 using [3H]DAMGO in rat brain synaptosomes was determined; assay type: subcellular
[3] = target: Delta-type opioid receptor (Rattus norvegicus, UniProt P33533); assay: Binding affinity against Opioid receptor delta 1 using [3H]DT in rat brain synaptosomes was determined; assay type: subcellular
Mu-type opioid receptor [4] = target: Mu-type opioid receptor (Cavia porcellus, UniProt P97266); assay: In vitro biological activity by electrically induced smooth muscle contractions in guinea pig ileum (Opioid receptor mu 1); inhibitory concentration was evaluated; assay type: functional, tissue-based
[5] = Ratio of inhibitory concentration of guinea pig ileum to mouse vas deferens was determined; assay type: functional

Chain of Mu-type opioid receptor (Cavia porcellus, UniProt P97266) (P97266 whole entry): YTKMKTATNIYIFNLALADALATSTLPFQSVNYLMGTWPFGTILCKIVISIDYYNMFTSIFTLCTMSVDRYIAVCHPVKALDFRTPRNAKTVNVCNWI
Chain of Mu-type opioid receptor (Rattus norvegicus, UniProt P33535) (P33535 whole entry): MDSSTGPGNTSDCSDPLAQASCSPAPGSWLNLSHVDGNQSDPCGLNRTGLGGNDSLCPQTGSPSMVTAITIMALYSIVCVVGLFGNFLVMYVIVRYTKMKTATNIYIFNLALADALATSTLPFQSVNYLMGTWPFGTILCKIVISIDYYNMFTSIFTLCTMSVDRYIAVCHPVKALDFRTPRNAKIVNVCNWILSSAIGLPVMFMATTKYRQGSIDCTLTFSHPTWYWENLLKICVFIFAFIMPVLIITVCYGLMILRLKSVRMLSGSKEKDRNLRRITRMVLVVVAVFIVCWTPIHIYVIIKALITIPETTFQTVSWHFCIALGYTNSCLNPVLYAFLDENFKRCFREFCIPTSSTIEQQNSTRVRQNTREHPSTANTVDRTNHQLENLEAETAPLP
Chain of Delta-type opioid receptor (Rattus norvegicus, UniProt P33533) (P33533 whole entry): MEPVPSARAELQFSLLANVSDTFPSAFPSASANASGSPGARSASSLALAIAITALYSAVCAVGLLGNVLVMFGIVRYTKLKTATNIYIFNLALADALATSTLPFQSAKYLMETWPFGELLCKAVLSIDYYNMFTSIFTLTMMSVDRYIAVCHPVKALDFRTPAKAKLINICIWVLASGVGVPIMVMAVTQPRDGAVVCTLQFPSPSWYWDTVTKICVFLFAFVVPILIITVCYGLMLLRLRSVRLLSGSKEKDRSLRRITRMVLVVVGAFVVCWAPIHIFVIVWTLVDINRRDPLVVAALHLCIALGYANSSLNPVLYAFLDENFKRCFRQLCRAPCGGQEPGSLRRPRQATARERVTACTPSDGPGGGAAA
Chain of Delta-type opioid receptor (Mus musculus, UniProt P32300) (P32300 whole entry): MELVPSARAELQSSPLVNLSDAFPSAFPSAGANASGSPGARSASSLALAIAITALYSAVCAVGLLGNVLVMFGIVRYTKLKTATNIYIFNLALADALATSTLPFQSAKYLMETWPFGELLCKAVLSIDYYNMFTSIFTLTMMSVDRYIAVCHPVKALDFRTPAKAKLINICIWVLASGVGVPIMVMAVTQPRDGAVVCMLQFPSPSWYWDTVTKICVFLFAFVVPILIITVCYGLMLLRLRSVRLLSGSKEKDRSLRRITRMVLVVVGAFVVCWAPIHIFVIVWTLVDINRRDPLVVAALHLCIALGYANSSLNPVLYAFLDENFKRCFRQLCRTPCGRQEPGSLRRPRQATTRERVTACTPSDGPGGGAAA

Structure (SMILES) | IC50 [1] [nM] | Ki (Mu-type opioid receptor [2]) [nM] | Ki [3] [nM] | IC50 (Mu-type opioid receptor [4]) [nM] | Ratio [5]
Cc1cccc(C)c1C[C@H](NC(=O)[C@H](C)NC(=O)[C@@H](N)Cc1ccc(O)cc1)C(=O)N[C@@H](CCC(=O)O)C(=O)N[C@H](C(=O)N[C@H](C(=O)NCC(N)=O)C(C)C)C(C)C | 0.022 | 1100 | 0.00105 | 6700 | 304772
CC(C)[C@H](NC(=O)[C@H](CC(=O)O)NC(=O)[C@H](Cc1ccccc1)NC(=O)[C@@H](C)NC(=O)[C@@H](N)Cc1ccc(O)cc1)C(=O)N[C@H](C(=O)NCC(N)=O)C(C)C [DELTORPHIN C] |  | 314 | 0.0026 | 5440 | 
C[C@@H](NC(=O)[C@@H](N)Cc1ccc(O)cc1)C(=O)N[C@@H](Cc1ccccc1)C(=O)NCC(=O)N[C@@H](Cc1ccc(O)cc1)C(=O)N1CCC[C@H]1C(=O)N[C@@H](CO)C(N)=O [DERMORPHIN] |  | 0.092 |  | 3.74 | 
Cc1cccc(C)c1C[C@H](NC(=O)[C@H](C)NC(=O)[C@@H](N)Cc1ccc(O)cc1)C(=O)NCC(=O)N[C@@H](Cc1ccc(O)cc1)C(=O)N1CCC[C@H]1C(=O)N[C@@H](CO)C(N)=O |  |  | 45.7 | 1.21 | 
Cc1cccc(C)c1C[C@@H](NC(=O)[C@@H](C)NC(=O)[C@@H](N)Cc1ccc(O)cc1)C(=O)NCC(=O)N[C@@H](Cc1ccc(O)cc1)C(=O)N1CCC[C@H]1C(=O)N[C@@H](CO)C(N)=O |  |  | 3300 | 44.4 | 
Cc1cccc(C)c1C[C@@H](NC(=O)[C@@H](C)NC(=O)[C@@H](N)Cc1ccc(O)cc1)C(=O)N[C@@H](CCC(=O)O)C(=O)N[C@H](C(=O)N[C@H](C(=O)NCC(N)=O)C(C)C)C(C)C | 145 | 1960 | 111 | 8210 | 56
